From patent US20100303887A1, “DHA and PEDF, a Therapeutic Composition for Nerve and Retinal Pigment Epithelial Cells” (priority 2007, published 2010)

What was measured:
caspase-3 = assay: Caspase-3 cleavage in A2E-exposed ARPE-19 cells (Western blot); assay type: cell-based, human; conditions: NPD1 50 nM
Description: (§1) Analysis of Bcl-2 and caspase-3 cleavage. Bcl-2 protein and caspase-3 cleavage were analyzed by Western-blot analysis. Also, ARPE-19 cells, stably transfected with a lentivirus construct containing the […] caspase 3 cleavage sequence, were used. In short, 15-20 μg equivalent of each cell extract were subjected to electrophoresis on an 8-16% gel (Invitrogen Corporation, Carlsbad, Calif.) at 125 volts for 2 hr. The proteins were transferred to nitrocellulose membranes at 30 volts for 70 minutes at 4° C. The membranes were probed with primary antibodies against Bcl-2 (Santa Cruz Biotechnology, Inc., Santa Cruz, Calif.) and cleaved caspase-3 (Asp-175) (Cell Signaling) at room temperature and treated for 20 minutes with the secondary antibody, goat anti-rabbit IgG: horseradish peroxidase, and horseradish peroxidase-conjugated anti-biotin antibody, then proteins were detected by using an ECL kit (Amersham Biosciences, Buckinghamshire, United Kingdom).
(§2) Caspase cleavage and Bcl-2 changes triggered by A2E are restored by NPD1. […] NPD1 (50 nM) counteracted the effect of A2E (see Materials and Methods). Data is an average of relative density detection±SEM of six individuals. […] These findings indicate that NPD1 protects the RPE against A2E-induced apoptosis at the pre-mitochondrial level of the apoptosis cascade by altering Bcl-2 balance. […]

ARPE-19 cells [1] = assay: Cell viability using calcein (AM), ethidium homodimer and phase contrast microscopy after oxidative stress; assay type: cell-based, human; conditions: added up to 15 hr after triggering oxidative stress; data not shown
Description: A2E-triggered oxidative stress precedes cell death. Since oxidative stress and/or inflammatory signaling are involved in early stages of retinal degenerations, oxidative stress, triggered by another experimental condition, serum starvation/H2O2/TNFα was explored (FIG. 1C). NPD1 also exerted protection in this experimental condition. […] What was surprising was the extended time window. […] (Data not shown)

ARPE-19 cells [2] = assay: Serum starvation/H2O2/TNFα oxidative stress-induced apoptosis in ARPE-19 cells (Hoechst staining); assay type: cell-based, human; conditions: NPD1 added eight hours after triggering oxidative stress
Description: Exposure of ARPE-19 cells to growth factors. Cells at 75-80% confluence (72 hr growth in DMEM/F12+10% FBS) were serum-starved for 2 hr before exposure to growth factors. The serum-starved cells were treated with TNF-α (Sigma-Aldrich Corporation, St. Louis, Mo.) (10 ng/ml) and H2O2 (600 μM) to induce oxidative stress and challenged with increasing concentrations (10, 30, 50 nM) and PEDF (Chemicon International, Temecula, Calif.) (50 ng/ml) simultaneously with oxidative stress for 4 hr before harvesting for protein analysis. Cell extracts were made and protein concentrations were adjusted by Bio-Rad protein reagent and used for Western-blot analysis. […] Cells were analyzed to detect Hoechst-positive apoptotic cells.
Hoechst Staining. […] Cells were washed once with PBS and photographed using a Nikon DIAPHOT 200 microscope with fluorescence optics. Images were recorded by a Hamamatsu Color Chilled 3CCD camera and PHOTOSHOP 5.0 software (Adobe Systems, Mountain View, Calif.).
A2E, a lipofusin component, accumulates in the RPE during aging, and, in an exaggerated manner, in age-related macular degeneration (AMD) and Stargardt macular dystrophy (an early onset form of AMD). […] Hoechst 33258 was analyzed at 15 hours. […]

Bcl-2 = Bcl-2 expression in A2E-exposed ARPE-19 cells (Western blot); assay type: cell-based, human; conditions: NPD1 50 nM
Description: as §1, §2

Bax = Bax expression in A2E-exposed ARPE-19 cells (Western blot); assay type: cell-based, human; conditions: NPD1 50 nM
ARPE-19 cells [3] = assay: A2E-induced apoptosis in ARPE-19 cells (Hoechst 33258 staining); assay type: cell-based, human
Description: Hoechst Staining. ARPE-19 cells were incubated with 2 μM Hoechst reagent dissolved in Lock's solution (Promega Corporation, Madison. Wis.) at 37° C. for 45 minutes before imaging. Cells were washed once with PBS and photographed using a Nikon DIAPHOT 200 microscope with fluorescence optics. Images were recorded by a Hamamatsu Color Chilled 3CCD camera and PHOTOSHOP 5.0 software (Adobe Systems, Mountain View, Calif.).
(§3) A2E, a lipofusin component, accumulates in the RPE during aging, and, in an exaggerated manner, in age-related macular degeneration (AMD) and Stargardt macular dystrophy (an early onset form of AMD). As a consequence, RPE apoptosis precedes the demise of photoreceptors. […] Seventy-two (72) hours after plating, ARPE-19 cells were serum starved for 4 hours. A2E (20 μM) was added in the presence of 430 nM light and O2 (see Materials and Methods). Other cells were exposed instead to H2O2/TNFα. NPD1 was added prior to, or at different times after, A2E or H2O2/TNFα, up to 12 hours. Time of NPD1 addition is indicated by black arrows on FIG. 1A. Hoechst 33258 was analyzed at 15 hours. FIG. 1B illustrates the appearance of Hoechst 33258 positive cells upon exposure to A2E and the effect of NPD1. FIG. 1C is similar to FIG. 1B, except that H2O2/TNFα was used to trigger oxidative stress. […]

A2E oxiranes (epoxides) = assay: A2E conversion to A2E oxiranes (epoxides) in ARPE-19 cells, LC-MS-MS; assay type: cell-based, human; conditions: NPD1 50 nM; light and oxygen
Description: as §3, with “stress. FIG. 1D depicts the formation of oxiranes (epoxides) upon exposure of ARPE-19 cells to A2E in the presence of O2 and 430 nM light for 15 minutes followed by 60 minutes incubation in the dark.” for “stress.”
To study the mechanism of NPD1-mediated RPE protection against A2E oxidative stress, the possibility that A2E conversion to A2E oxiranes (epoxides) may be the target of NPD1 was tested. […] Multiple oxiranes (epoxides), up to nonaoxiranes, were detected by MS-MS in ARPE-19 cells exposed to light and oxygen (FIG. 1D).

NPD1 synthesis = NPD1 synthesis and release from polarized primary human RPE cell monolayers (lipidomic analysis); assay type: cell-based
Description: Human RPE cells. Cultures of retinal pigment epithelial (RPE) cells were prepared. RPE cells were seeded onto Millicell-HA culture plate inserts (Millipore, Bradford, Mass.), placed in 24-well plates, and allowed to reach confluence. Consent for use of tissue for research was obtained in compliance with Federal and State law and institutional regulations. Cultures were maintained in Chee's essential replacement medium until the experiments were performed as described in J. Hu and D. Bok (2001) Mol Vis 7:14-19. The medium includes Eagle's minimal essential medium with calcium (MEM, Irvine Scientific, Irvine, Calif.), 1% heat-inactivated calf serum (JRH Bioscience, Lennexo, Kans.), amino acid supplements, and 1% bovine retinal extract. The Millicell-HA filter inserts allow separate manipulation of the culture media bathing the apical and basal surfaces of the RPE monolayer and measurement of the transepithelial resistance (TER), which provides a measure of cell differentiation and confluency. Cultures were used for experiments once they developed a TER of at least 400 Ω·cm^2, as measured by an Epithelial Volt-ohmmeter (EVOM, World Precision Instruments, New Haven, Conn.).
Exposure of RPE cells to growth factors. […] […] The lower chamber was filled with 500 μl media (bathing the basal cell monolayer surface) containing 0.1% HSA. Cells were incubated for 72 hours, then apical and basal media were removed and collected for analysis. After allowing the cells to rest for at least 72 hours on fresh media, the experiments were repeated.
Lipidomic analysis. Human RPE primary cell cultures or ARPE-19 cells were separated from culture media and washed with 1 ml PBS. After addition of 1 ml methanol, cells were scraped from plates or millicell membranes and collected for lipid extraction. Media was spun-down to separate cell debris, then 350 μl were collected in 1 ml of cold chloroform:methanol (1:1). Protein precipitates were then separated by centrifugation at 1500×g (5 min, 4° C.). Lipid extracts were collected, and kept under nitrogen at −80° C. until solid-phase purification; extracts were pre-equilibrated at pH 3.0 in 10% methanol/water, then loaded to 500 mg C18 columns (Varian, Inc., Palo Alto, Calif.), and eluted with 1% methanol/ethyl acetate. Eluates were concentrated on a N2 stream evaporator. Samples were loaded to a liquid chromatograph-tandem mass spectrometer (LC-TSQ Quantum, Thermo-Finnigan; Thermo Fisher Scientific, Waltham, Mass.) installed with a Biobasic-AX column (Thermo-Hypersil-Keystone, Thermo Fisher Scientific, Waltham, Mass.) (100 mm\2.1 mm, 5-μm particle sizes), and eluted in a linear gradient [100% solution A (40:60:0.01 methanol/water/acetic acid pH 4.5) to 100% solution B (99.99:0.01 methanol/acetic acid)], at a flow rate of 300 μl/min for 30 minutes. LC effluents were diverted to an electro-spray-ionization probe (ESI) on a TSQ Quantum (Thermo-Finnigan, Thermo Fisher Scientific, Waltham, Mass.) triple quadrupole mass spectrometer. NPD1 and resolving D1 were obtained by biogenic synthesis as described in N. G. Bazan, D. L. Birkle, and T. S. Reddy (1984) Biochem Biophys Res Commun. 125:741-74, and V. L. Marcheselli et al. (2003) J. Biol. Chem. 278:43807-43817. Erratum in: (2003) J Biol Chem 278:51974. Other lipid standards (Cayman Chem. Ann Arbor, Mich.) were used for tuning and optimization and to create calibration curves. The instrument was set on full-scan mode, to detect parent ions, and selected reaction mode (SRM) for quantitative analysis, to detect product ions, simultaneously. The selected parent/product ions (m/z) and collision energy (v) obtained by running on negative ion detection mode were: 359.2/153.1/20 for NPD1, 343.2/281.2/18 for resolving D1, 351.2/195.0/22 for 20HO-LTB4 (used as internal standard), 327.2/283.3/16 for DHA, 311.3/267.3/20 Arachidonic Acid-d8 (used as internal standard, IS).
Neurotrophins activated NPD1 synthesis in cultured primary human RPE cells. […]

[4] = increasing concentrations, 72 hr

CC/C=C\C[C@H](O)\C=C/C=C/C=C/[C@H](O)C/C=C\C/C=C\CCC(=O)O [NPD1, Neuroprotectin D1]
Effect on A2E-enhanced caspase-3 cleavage (caspase-3): counteracted A2E-enhanced caspase-3 cleavage
Protection of cell viability (calcein AM, ethidium homodimer, phase contrast) (ARPE-19 cells [1]): showed protection
Protection against H2O2/TNFα oxidative stress-induced apoptosis, delayed addition (ARPE-19 cells [2]): resulted in protection
Effect on Bcl-2 protein expression (Bcl-2): increased Bcl-2 protein expression
Effect on Bax expression (Bax): showed a tendency to decrease Bax expression
Cytoprotection against A2E-induced apoptosis (Hoechst 33258 positive cells) (ARPE-19 cells [3]; A2E 20 μM, 430 nm light and O2, Hoechst at 15 hours): cytoprotective
Protection against A2E-induced apoptosis, delayed addition (ARPE-19 cells [3]; NPD1 50 nM added 6 hours after A2E): ensures protection
Effect on A2E conversion to A2E oxiranes (epoxides) (A2E oxiranes (epoxides)): did not affect this conversion

CCCCC/C=C\C/C=C\C/C=C\C/C=C\CCCC(=O)O [arachidonic acid, reference compound]
NPD1 synthesis and release, fatty acid added to the apical medium (NPD1 synthesis; 72 hr, DHA 0 to 200 nM, arachidonic acid under similar conditions): failed to induce NPD1 synthesis
NPD1 synthesis, arachidonic acid in the presence of PEDF (NPD1 synthesis; added arachidonic acid with PEDF): did not stimulate NPD1 synthesis

CC/C=C\C/C=C\C/C=C\C/C=C\C/C=C\C/C=C\CCC(=O)O [DHA, docosahexaenoic acid]
Cellular NPD1 content (percentile distribution of total NPD1) (NPD1 synthesis; 200 nM DHA (25% when no DHA was added)): 7%
DHA concentration at which NPD1 in the apical media reaches a maximum (NPD1 synthesis; DHA treatment on the apical media): 50 nM

B1: CNTF: ciliary neurotrophic factor, a neurotrophin (protein, UniProt P26441 1-200, looked up)
Ciliary neurotrophic factor: MAFTEHSPLTPHRRDLCSRSIWLARKIRSDLTALTESYVKHQGLNKNINLDSADGMPVASTDQWSELTEAERLQENLQAYRTFHVLLARLLEDQQVHFTPTEGDFHQAIHTLLLQVAAFAYQIEELMILLEYKIPRNEADGMPINVGDGGLFEKKLWGLKVLQELSQWTVRSIHDLRFISSHQTGIPARGSHYIANNKKM
NPD1 release, neurotrophin added to the apical medium (NPD1 synthesis; [4]): concentration-dependent increases in NPD1 release only on the apical side
NPD1 release, neurotrophin added to the basal medium (NPD1 synthesis; [4]): much less NPD1 release on the apical side
